Measurements from the NIST ThermoML archive (doi:10.1021/acs.jced.8b00554).

Conditions: Liquid, Vibrating tube method

CCCO [propan-1-ol]
Conditions | mass density [kg/m3]
313.15 K, 100 kPa | 787.65
313.15 K, 1020 kPa | 788.65
313.15 K, 2000 kPa | 789.51
313.15 K, 3010 kPa | 790.39
313.15 K, 4020 kPa | 791.23
313.15 K, 5020 kPa | 792.09
313.15 K, 6010 kPa | 792.93
313.15 K, 7020 kPa | 793.75
313.15 K, 8030 kPa | 794.57
313.15 K, 9010 kPa | 795.39
313.15 K, 10020 kPa | 796.2
313.15 K, 11010 kPa | 796.99
313.15 K, 12020 kPa | 797.79
313.15 K, 13010 kPa | 798.57
313.15 K, 14020 kPa | 799.35
313.15 K, 15030 kPa | 800.12
313.15 K, 16010 kPa | 800.88
313.15 K, 17020 kPa | 801.63
313.15 K, 18010 kPa | 802.39
313.15 K, 19020 kPa | 803.13
313.15 K, 20010 kPa | 803.87
323.15 K, 100 kPa | 779.29
323.15 K, 1020 kPa | 780.33
323.15 K, 2020 kPa | 781.26
323.15 K, 3010 kPa | 782.17
323.15 K, 4030 kPa | 783.07
323.15 K, 5010 kPa | 783.96
323.15 K, 6010 kPa | 784.85
323.15 K, 7000 kPa | 785.72
323.15 K, 8010 kPa | 786.58
323.15 K, 9020 kPa | 787.44
323.15 K, 10030 kPa | 788.29
323.15 K, 11020 kPa | 789.12
323.15 K, 12010 kPa | 789.95
323.15 K, 13020 kPa | 790.78
323.15 K, 14030 kPa | 791.59
323.15 K, 15030 kPa | 792.41
323.15 K, 16000 kPa | 793.2
323.15 K, 17010 kPa | 794
323.15 K, 18030 kPa | 794.78
323.15 K, 19030 kPa | 795.56
323.15 K, 20020 kPa | 796.33
333.15 K, 100 kPa | 770.58
333.15 K, 1030 kPa | 771.74
333.15 K, 2020 kPa | 772.72
333.15 K, 3020 kPa | 773.69
333.15 K, 4030 kPa | 774.64
333.15 K, 5020 kPa | 775.59
333.15 K, 6020 kPa | 776.52
333.15 K, 7010 kPa | 777.45
333.15 K, 8020 kPa | 778.36
333.15 K, 9010 kPa | 779.27
333.15 K, 10030 kPa | 780.16
333.15 K, 11020 kPa | 781.05
333.15 K, 12030 kPa | 781.93
333.15 K, 13010 kPa | 782.79
333.15 K, 14030 kPa | 783.65
333.15 K, 15030 kPa | 784.5
333.15 K, 16000 kPa | 785.34
333.15 K, 17030 kPa | 786.17
333.15 K, 18010 kPa | 787
333.15 K, 19020 kPa | 787.81
333.15 K, 20000 kPa | 788.62
